In the CheMixHub viscosity set:
± gives the uncertainty stated by the source.

Assay: xn = mol fraction of the nth substance listed

Cl.N[C@@H](CS)C(=O)O.O + O
viscosity [mPa·s], 101 kPa
Details | 303.15 K | 308.15 K | 313.15 K | 318.15 K | 323.15 K
x1 = 0.01 | 0.8529 ± 0.007 | 0.7892 ± 0.0065 | 0.7275 ± 0.0061 | 0.6712 ± 0.0057 | 0.6181 ± 0.0053
x1 = 0.0122 | 0.9644 ± 0.048 | – | 0.795 ± 0.041 | – | 0.6742 ± 0.035
x1 = 0.02 | 1.126 ± 0.0089 | 1.023 ± 0.0082 | 0.9082 ± 0.0074 | 0.8248 ± 0.0068 | 0.769 ± 0.0064
x1 = 0.0272 | 1.2 ± 0.058 | – | 0.9836 ± 0.049 | – | 0.8276 ± 0.042
x1 = 0.04 | 1.506 ± 0.012 | 1.356 ± 0.01 | 1.273 ± 0.0099 | 1.112 ± 0.0088 | 1.018 ± 0.0081
x1 = 0.0463 | 1.591 ± 0.075 | – | 1.288 ± 0.062 | – | 1.084 ± 0.053
x1 = 0.0579 | 1.877 ± 0.087 | – | 1.508 ± 0.071 | – | 1.244 ± 0.06
x1 = 0.0714 | 2.27 ± 0.1 | – | 1.797 ± 0.083 | – | 1.49 ± 0.07
x1 = 0.08 | 2.486 ± 0.018 | 2.237 ± 0.017 | 1.968 ± 0.015 | 1.785 ± 0.014 | 1.594 ± 0.012
x1 = 0.0871 | 2.805 ± 0.13 | – | 2.191 ± 0.1 | – | 1.711 ± 0.08
x1 = 0.1 | 3.391 ± 0.025 | 2.955 ± 0.022 | 2.572 ± 0.019 | 2.293 ± 0.017 | 2.048 ± 0.015
x1 = 0.1057 | 3.602 ± 0.16 | – | 2.783 ± 0.13 | – | 2.239 ± 0.1
x1 = 0.11 | 3.97 ± 0.029 | 3.387 ± 0.025 | 2.951 ± 0.022 | 2.575 ± 0.019 | 2.336 ± 0.018
x1 = 0.12 | 4.627 ± 0.034 | 3.883 ± 0.029 | 3.387 ± 0.025 | 2.93 ± 0.022 | 2.67 ± 0.02
x1 = 0.1281 | 5.207 ± 0.22 | – | 3.69 ± 0.16 | – | 2.906 ± 0.13
x1 = 0.13 | 5.349 ± 0.039 | 4.451 ± 0.033 | 3.878 ± 0.029 | 3.35 ± 0.025 | 3.052 ± 0.023
x1 = 0.14 | 6.119 ± 0.043 | 5.101 ± 0.037 | 4.426 ± 0.033 | 3.833 ± 0.029 | 3.483 ± 0.026
x1 = 0.15 | 6.915 ± 0.047 | 5.842 ± 0.041 | 5.027 ± 0.037 | 4.408 ± 0.033 | 3.963 ± 0.029
x1 = 0.1558 | 7.415 ± 0.29 | – | 5.463 ± 0.23 | – | 4.309 ± 0.19
x1 = 0.16 | 7.706 ± 0.051 | 6.524 ± 0.045 | 5.678 ± 0.041 | 5.017 ± 0.037 | 4.492 ± 0.033
x1 = 0.17 | 8.459 ± 0.055 | 7.218 ± 0.049 | 6.372 ± 0.044 | 5.719 ± 0.041 | 5.066 ± 0.037
x1 = 0.18 | 9.134 ± 0.059 | 8.014 ± 0.053 | 7.104 ± 0.049 | 6.301 ± 0.044 | 5.685 ± 0.041
x1 = 0.19 | 9.972 ± 0.064 | 8.826 ± 0.058 | 7.864 ± 0.053 | 7.002 ± 0.048 | 6.342 ± 0.044
x1 = 0.1903 | 9.687 ± 0.36 | – | 7.875 ± 0.31 | – | 6.354 ± 0.26

NCCCN + O
viscosity [mPa·s]
Details | 303.15 K | 308.15 K | 313.15 K | 318.15 K | 323.15 K
101 kPa, x1 = 0.05 | 1.58 ± 0.01 | 1.38 ± 0.009 | 1.227 ± 0.008 | 1.097 ± 0.0072 | –
101 kPa, x1 = 0.0966 | 2.754 ± 0.017 | 2.355 ± 0.015 | 2.03 ± 0.013 | – | –
101 kPa, x1 = 0.1458 | 4.36 ± 0.027 | 3.619 ± 0.023 | 3.031 ± 0.019 | – | –
101 kPa, x1 = 0.199 | 6.289 ± 0.037 | 5.088 ± 0.032 | 4.188 ± 0.026 | – | –
101 kPa, x1 = 0.2473 | 7.568 ± 0.044 | 6.055 ± 0.037 | 4.93 ± 0.031 | – | –
101 kPa, x1 = 0.2961 | 8.219 ± 0.048 | 6.535 ± 0.04 | 5.313 ± 0.033 | – | –
101 kPa, x1 = 0.3465 | 7.991 ± 0.047 | 6.401 ± 0.04 | 5.22 ± 0.033 | – | –
101 kPa, x1 = 0.3974 | 7.438 ± 0.045 | 6.022 ± 0.038 | 4.946 ± 0.032 | – | –
101 kPa, x1 = 0.4955 | 5.878 ± 0.038 | 4.832 ± 0.032 | 4.038 ± 0.027 | – | –
101 kPa, x1 = 0.5995 | 4.307 ± 0.029 | 3.644 ± 0.025 | 3.127 ± 0.021 | – | –
101 kPa, x1 = 0.6969 | 3.224 ± 0.023 | 2.779 ± 0.02 | 2.419 ± 0.017 | – | –
101 kPa, x1 = 0.8006 | 2.501 ± 0.018 | 2.177 ± 0.016 | 1.921 ± 0.014 | – | –
101 kPa, x1 = 0.8936 | 1.997 ± 0.015 | 1.762 ± 0.013 | 1.573 ± 0.012 | – | –
101.33 kPa, x1 = 0.0518 | 1.637 ± 0.011 | 1.437 ± 0.01 | 1.267 ± 0.009 | 1.127 ± 0.008 | 1.008 ± 0.007
101.33 kPa, x1 = 0.1 | 2.991 ± 0.021 | 2.534 ± 0.018 | 2.174 ± 0.015 | 1.887 ± 0.013 | 1.65 ± 0.012
101.33 kPa, x1 = 0.1498 | 4.882 ± 0.035 | 4.012 ± 0.029 | 3.345 ± 0.024 | 2.827 ± 0.02 | 2.417 ± 0.018
101.33 kPa, x1 = 0.2004 | 6.762 ± 0.047 | 5.446 ± 0.04 | 4.467 ± 0.033 | 3.714 ± 0.027 | 3.132 ± 0.023
101.33 kPa, x1 = 0.2498 | 7.872 ± 0.056 | 6.309 ± 0.047 | 5.128 ± 0.039 | 4.236 ± 0.032 | 3.548 ± 0.027
101.33 kPa, x1 = 0.2734 | 8.088 ± 0.059 | 6.473 ± 0.048 | 5.268 ± 0.04 | 4.351 ± 0.033 | 3.646 ± 0.028
101.33 kPa, x1 = 0.2984 | 8.108 ± 0.06 | 6.502 ± 0.049 | 5.297 ± 0.041 | 4.379 ± 0.034 | 3.662 ± 0.029
101.33 kPa, x1 = 0.3248 | 7.918 ± 0.06 | 6.364 ± 0.049 | 5.199 ± 0.041 | 4.307 ± 0.034 | 3.619 ± 0.029
101.33 kPa, x1 = 0.3502 | 7.614 ± 0.059 | 6.155 ± 0.048 | 5.027 ± 0.04 | 4.189 ± 0.033 | 3.518 ± 0.028
101.33 kPa, x1 = 0.3766 | 7.121 ± 0.056 | 5.774 ± 0.047 | 4.754 ± 0.039 | 3.972 ± 0.032 | 3.354 ± 0.027
101.33 kPa, x1 = 0.4041 | 6.681 ± 0.054 | 5.464 ± 0.045 | 4.509 ± 0.037 | 3.787 ± 0.031 | 3.211 ± 0.027
101.33 kPa, x1 = 0.4467 | 5.911 ± 0.05 | 4.871 ± 0.042 | 4.068 ± 0.035 | 3.445 ± 0.029 | 2.935 ± 0.025
